The results in this text go back to ChEMBL document CHEMBL1151040, “Synthetic inhibitors of interleukin-6 I: 2,3,7,8-tetrahydro-4-aryl-1H-cyclopent [e] imidazo [1,2-a]- pyridin-5(6H)-one and related compounds” (Bioorg Med Chem Lett, 1995).

Experiment [1] has as its system WEHI265.1. Description: In vitro inhibitory activity against lipopolysaccharide (LPS)-induced interleukin 6 production in murine myelomonocytic leukemia (WEHI-265.1) cells at a concentration of 10 uM. The note with it: Mus musculus. Type of experiment: functional.
The test system of experiment [2] is WEHI265.1. Description: In vitro inhibitory activity against lipopolysaccharide (LPS)-induced interleukin 6 (IL-6) production in murine myelomonocytic leukemia (WEHI-265.1) cells. Format: functional, cell-based. The note with it: Mus musculus.
Experiment [3] deals with Mus musculus. Description: Effective dose of compound against serum interleukin 6 (IL-6) in C3H mice when administered intraperitoneally. Format: functional. Particulars: ip.
The test system of experiment [4] is Mus musculus. Description: Inhibitory activity against LPS-induced interleukin 6 (IL-6) in the serum of C3H mice, at a dose of 25 mpk by oral administration. Format: functional.
Experiment [5] has as its system Mus musculus. Description: Inhibitory activity against LPS-induced interleukin 6 (IL-6) in the serum of C3H mice, at a dose of 25 mpk by intraperitoneal administration. Format: functional. Particulars: ip.
The subject of experiment [6] is WEHI265.1. Description: In vitro inhibitory activity against lipopolysaccharide (LPS) -induced IL-6 production in murine myelomonocytic uM. Type of experiment: functional, Mus musculus.
Experiment [7] concerns Mus musculus. Description: Effective dose of compound against serum interleukin 6 (IL-6) in C3H mice when administered orally. The note with it: po. Type of experiment: functional.

Turning to `O=C(O)c1cccc(C2=C(O)C3=C(CCC3)N3CCN=C23)c1`, the inhibition at 10 µM in the experiment with WEHI265.1 [1] worked out at 0%.

In the case of `OC1=C(c2ccccn2)C2=NCCN2C2=C1CCC2`, the inhibition at 10 µM in the experiment on WEHI265.1 [1] was found to be 55%.

Take `O=[N+]([O-])c1ccccc1C1=C(O)C2=C(CCC2)N2CCN=C12`: at 10 µM the inhibition in the experiment on WEHI265.1 [1] was 73%. For the same compound, it took 6 µM to reach half-maximal inhibition with WEHI265.1 [2] (IC50). The same compound had an ED50 with Mus musculus [3] of 8 mg/kg. Further, testing at 25 mg/kg in the experiment on Mus musculus [4] gave an inhibition in vivo of 78%.

On to `O=c1c2c(n3c(c1-c1ccccc1)N(Cc1ccccc1)CC3)CCC2`, for which the inhibition at 10 µM in the experiment on WEHI265.1 [1] stood at 43%.

On to `O=c1c2c(n3c(c1-c1ccccc1)OCC3)CCC2`, for which, in the experiment with WEHI265.1 [1], the inhibition at 10 µM came out at 20%.

`CCOC(=O)c1cccc(C2=C(O)C3=C(CCC3)N3CCN=C23)c1`: 10 µM produced 83% inhibition in the experiment with WEHI265.1 [1]. The compound also had an IC50 with WEHI265.1 [2] of 0.6 µM.

In the experiment on WEHI265.1 [1], `OC1=C(c2ccccc2O)C2=NCCN2C2=C1CCC2` gave an inhibition at 10 µM of 55%.

In turn, `OC1=CC2=NCCN2C2=C1CCC2` came in with an inhibition at 10 µM in the experiment on WEHI265.1 [1] of 38%.

`OC1=C(c2ccccc2)C2=NCCN2C2=C1CCC2`: the values for the inhibition in vivo at 25 mg/kg in the experiment on Mus musculus [5] and with Mus musculus [4] were 77% and 39%, respectively. The compound further yielded an Inhibition in the experiment on WEHI265.1 [6] of 74%. In the experiment on WEHI265.1 [2], this compound registered a concentration for half-maximal inhibition (IC50) of 0.2 µM. The results for the ED50 in the experiment on Mus musculus [3] and in the experiment on Mus musculus [7] were 0.35 mg/kg and 32 mg/kg, respectively.

With `CC(=O)Nc1ccccc1-c1c2n(c3c(c1=O)CCC3)CCN2`, the inhibition at 10 µM with WEHI265.1 [1] stood at 74%. This compound also had an IC50 with WEHI265.1 [2] of 5 µM.

`O=c1c2c(n3c(c1-c1ccccc1)SCC3)CCC2` yielded an inhibition at 10 µM with WEHI265.1 [1] of 52%.

In the experiment on WEHI265.1 [1], `OC1=C(Sc2ccccc2)C2=NCCN2C2=C1CCC2` gave an inhibition at 10 µM of 63%.

`CN1CCn2c3c(c(=O)c(-c4ccccc4)c21)CCC3` returned an inhibition at 10 µM in the experiment with WEHI265.1 [1] of 27%.

`OC1=C(c2ccccc2C(F)(F)F)C2=NCCN2C2=C1CCC2` displayed an inhibition at 10 µM with WEHI265.1 [1] of 90%.

The compound `CCOC(=O)C1=C(O)C2=C(CCC2)N2CCN=C12` gave an inhibition at 10 µM with WEHI265.1 [1] of 58%.

In turn, `CSC1=C(O)C2=C(CCC2)N2CCN=C12` showed an inhibition at 10 µM in the experiment with WEHI265.1 [1] of 77%.

Consider `OC1=C(c2cccnc2)C2=NCCN2C2=C1CCC2`, for which at 10 µM the inhibition in the experiment with WEHI265.1 [1] was 0%.

In the experiment with WEHI265.1 [1], `O=c1c2c(n3c(c1-c1ccccc1Cl)NCC3)CCC2` registered an inhibition at 10 µM of 90%. Also, in the experiment on WEHI265.1 [2], 4 µM corresponded to half-maximal inhibition (IC50). This compound also registered an ED50 in the experiment on Mus musculus [3] of 0.5 mg/kg.

In the experiment with WEHI265.1 [1], `Nc1ccccc1-c1c2n(c3c(c1=O)CCC3)CCN2` came in with an inhibition at 10 µM of 82%. Moreover, the IC50 in the experiment with WEHI265.1 [2] is 2 µM. The compound also showed an ED50 in the experiment on Mus musculus [3] of 4 mg/kg. In the experiment on Mus musculus [4], this compound showed an inhibition in vivo at 25 mg/kg of 72%.

`COc1ccccc1-c1c2n(c3c(c1=O)CCC3)CCN2` had an inhibition at 10 µM in the experiment on WEHI265.1 [1] of 82%. In the experiment on Mus musculus [3], this compound gave an ED50 of 0.3 mg/kg.

Broadly, the inhibition is how much of the control response was suppressed. Broadly, the IC50 is the midpoint of a concentration-inhibition curve. As usually defined, the ED50 is the dose at which the effect has come halfway, by size or by number of responders. A low value points to greater potency. In general, inhibition in vivo refers to the drop in the measured response relative to a control, in per cent. Low values mean a weak effect, high ones a strong effect. One may read the Inhibition as the drop in the measured response relative to a control, in per cent. A lower Inhibition goes with a weak effect.
